Laboratory results taken from PMC7617869, “Molecular glues that inhibit deubiquitylase activity and inflammatory signaling” (Nature Structural & Molecular Biology, 2025).
Several values for one entry are separate records, joined by “and”; a condition that tells them apart may be missing. Equal values may be shown once. Read-outs that look alike come from different tables or passages of the source.

Tests used:
[1] = biological target: T1, BRISC (Homo sapiens, UniProt P46736+Q15018+Q9NXR7); assay: BRISC DUB activity assay (IQF K63-linked diubiquitin); format: biochemical
T1 construct: made in house; host or cells: Spodoptera frugiperda (Sf9) insect cells, MultiBac
Summary of the method: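 Enzyme at 1 nM (BRISC WT or mutant) hydrolysed 50 nM IQF K63 diubiquitin in 50 mM HEPES–NaOH pH 7.0, 100 mM NaCl buffer at 30 °C. Kinetic fluorescence at 544/575 nm gave V0 over 30 min. Dose–response curves were fitted with variable slope to give IC50.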

[2] = test system: ISG expression in MCF10A Cas9 cells expressing BRCC45 R137A; assay: MCF10A BRCC45 R137A ISG expression (RT–qPCR); format: cell-based, human; parameters: scale not given here; conditions: BRCC45 KO+ BRCC45 R137A; replicate values
Method: Supplementary Protocols 1. Experimental procedures for cell biology experiments. […]
Media supplements including human insulin solution (Santa Cruz Biotechnology, #sc-360248), cholera toxin from vibrio (Sigma Aldrich, #C8052-2MG), recombinant human EGF (PeproTech, #AF-100-15-100µg), hydrocortisone (Sigma-Aldrich, #H-0888) were used to grow MCF10A cells. The 4–12% Bis-Tris SDS-PAGE gels, cell culture media, horse serum and other materials for tissue culture were purchased from Invitrogen. LipoD293 (SigmaGen, #SL100668) was used for all the transfections to generate knock out cell lines.
Immortalised breast epithelial cell line MCF10A were cultured in 10 cm plates with Dulbecco’s Modified Eagle Medium (DMEM) + F-12 (1:1) supplemented with 5% horse serum, 100 ng/mL cholera toxin, 10 […]
Real-time quantitative PCR
1x10^5 MCF10A cells were cultured as described above and seeded into 6 well plates. Cells were left to reach ultra-confluence. Once confluent, cells were washed with PBS and starved for 30 minutes in 2 mL DMEM + F-12 (1:1) supplemented with 1% horse serum. After 30 minutes cells were pre-treated with either DMSO (0.1%) (Control and IFN only) or BRISC inhibitor (2.5 µM) for 15 minutes. After 15 minutes, hIFN2α (75 ng/mL) was added to the media and mixed. Cells were treated for 4 hours. Cells were washed with ice cold PBS and scraped with cell scrapers into 350 µL RNAlater buffer and RNA […]
#79254). Isolated RNA was quantified using a Nanodrop spectrophotometer. RNA was converted into cDNA and the complementary DNA was used for real-time quantitative PCR analysis of expression of interferon stimulated genes (ISG15, IFIT1, IFIT2, IFITM1, CXCL10 and RNA18S) using an Applied Biosystems Quantstudio 6 RT-PCR system. All experiments were carried out in triplicate.

IC50 ([1]; 32-point dose-response, biphasic fit, read-out: IC50(1), biphasic curve): 7200 nM | IC50 ([1]; 32-point dose-response, biphasic fit, read-out: IC50(2), biphasic curve): 149 nM | remaining activity at 0.35 µM ([1]; BRISC WT, FX-171-C 0.35 μM, read-out: Normalised V0): 54.2% | remaining activity at 6.25 µM ([1]; BRISC WT, FX-171-C 6.25 μM, read-out: Normalised V0): 13% | IC50 ([1]; FX-171-C IC50, BRISC WT, mutant panel (Extended Data Fig. 7c)): 600 nM | Normalised V0 ([1]; Fig. 1g, BRISC, FX-171-C 0.0599997 μM): 1.019 | Normalised V0 ([1]; Fig. 1g, BRISC, FX-171-C 0.0799994 μM): 0.9329 and 1.215 and 0.984 | Normalised V0 ([1]; Fig. 1g, BRISC, FX-171-C 0.119998 μM): 0.8991 and 1.297 and 1.1131 | Normalised V0 ([1]; Fig. 1g, BRISC, FX-171-C 0.199996 μM): 0.9109 and 1.1 and 0.9714 | Normalised V0 ([1]; Fig. 1g, BRISC, FX-171-C 0.499975 μM): 0.8337 and 0.8541 and 0.839 | Normalised V0 ([1]; Fig. 1g, BRISC, FX-171-C 0.799936 μM): 0.8201 and 0.7671 and 0.7222 | Normalised V0 ([1]; Fig. 1g, BRISC, FX-171-C 1.25984 μM): 0.7744 and 0.5965 and 0.5179 | Normalised V0 ([1]; Fig. 1g, BRISC, FX-171-C 1.9996 μM): 0.7381 and 0.4197 and 0.4126 | Normalised V0 ([1]; Fig. 1g, BRISC, FX-171-C 3.159 μM): 0.4028 and 0.2971 and 0.3289 | Normalised V0 ([1]; Fig. 1g, BRISC, FX-171-C 5.19739 μM): 0.6152 and 0.3188 and 0.3118 | remaining activity at 0.0599997 µM ([1]; HsBRISC, FX-171-C 0.0599997 μM, read-out: Normalised V0): 102% | remaining activity at 0.199996 µM ([1]; HsBRISC, FX-171-C 0.199996 μM, read-out: Normalised V0): 91.1% | remaining activity at 0.499975 µM ([1]; HsBRISC, FX-171-C 0.499975 μM, read-out: Normalised V0): 83.4% | remaining activity at 0.799937 µM ([1]; HsBRISC, FX-171-C 0.799937 μM, read-out: Normalised V0): 82% | remaining activity at 3.159 µM ([1]; HsBRISC, FX-171-C 3.159 μM, read-out: Normalised V0): 40.3% | remaining activity at 19.96 µM ([1]; HsBRISC, FX-171-C 19.96 μM, read-out: Normalised V0): 18.8% | remaining activity at 31.4999 µM ([1]; HsBRISC, FX-171-C 31.4999 μM, read-out: Normalised V0): 18.9% | remaining activity at 79.7601 µM ([1]; HsBRISC, FX-171-C 79.7601 μM, read-out: Normalised V0): 22.3% | remaining activity at 125.99 µM ([1]; HsBRISC, FX-171-C 125.99 μM, read-out: Normalised V0): 16.2% | IC50 ([1]; IQF K63-linked diubiquitin substrate, read-out: IC50, inhibition of BRISC DUB activity): 1400 nM | Normalised V0 ([1]; [Inhibitor] 0.02 μM, replicate columns): 0.8164 and 1.359 and 1.027 | Normalised V0 ([1]; [Inhibitor] 0.0399999 μM, replicate columns): 0.8327 and 1.212 and 1.032 | Normalised V0 ([1]; [Inhibitor] 0.0599997 μM, replicate columns): 1.019 and 1.179 and 1.007 | Normalised V0 ([1]; [Inhibitor] 0.0799994 μM, replicate columns): 0.9329 and 1.215 and 0.984 | Normalised V0 ([1]; [Inhibitor] 0.119998 μM, replicate columns): 0.8991 and 1.297 and 1.1131 | Normalised V0 ([1]; [Inhibitor] 0.199996 μM, replicate columns): 0.9109 and 1.1 and 0.9714 | Normalised V0 ([1]; [Inhibitor] 0.499975 μM, replicate columns): 0.8337 and 0.8541 and 0.839 | Normalised V0 ([1]; [Inhibitor] 0.799936 μM, replicate columns): 0.8201 and 0.7671 and 0.7222 | Normalised V0 ([1]; [Inhibitor] 1.25984 μM, replicate columns): 0.7744 and 0.5965 and 0.5179 | Normalised V0 ([1]; [Inhibitor] 1.9996 μM, replicate columns): 0.7381 and 0.4197 and 0.4126 | Normalised V0 ([1]; [Inhibitor] 3.159 μM, replicate columns): 0.4028 and 0.2971 and 0.3289 | Normalised V0 ([1]; [Inhibitor] 5.19739 μM, replicate columns): 0.6152 and 0.3188 and 0.3118 | Normalised V0 ([1]; [Inhibitor] 7.99364 μM, replicate columns): 0.4919 and 0.2336 and 0.2963 | Normalised V0 ([1]; [Inhibitor] 12.7839 μM, replicate columns): 0.5596 and 0.3112 and 0.2492 | Normalised V0 ([1]; [Inhibitor] 19.96 μM, replicate columns): 0.1876 and 0.174 and 0.161 | Normalised V0 ([1]; [Inhibitor] 31.4999 μM, replicate columns): 0.1887 and 0.2421 and 0.2131 | Normalised V0 ([1]; [Inhibitor] 50.147 μM, replicate columns): 0.05691 and 0.1395 and 0.2567 | Normalised V0 ([1]; [Inhibitor] 79.7601 μM, replicate columns): 0.2227 and 0.2164 and 0.1439 | Normalised V0 ([1]; [Inhibitor] 125.99 μM, replicate columns): 0.1622 and 0.2082 and 0.2077 | Normalised V0 ([1]; [Inhibitor] 199.922 μM, replicate columns): 0.03119 and 0.1486 and 0.1232 | Normalised velocity (V0) ([1]; inhibitor 0.000794328 μM): 1 | Normalised velocity (V0) ([1]; inhibitor 0.00125892 μM): 0.9709 and 1.087 | Normalised velocity (V0) ([1]; inhibitor 0.00199526 μM): 0.9893 and 1.074 | Normalised velocity (V0) ([1]; inhibitor 0.00316228 μM): 1.07 and 1.182 | Normalised velocity (V0) ([1]; inhibitor 0.00501187 μM): 1.042 and 1.106 | Normalised velocity (V0) ([1]; inhibitor 0.00794328 μM): 1.04 and 1.13 | Normalised velocity (V0) ([1]; inhibitor 0.0125893 μM): 0.9855 and 1.097 | Normalised velocity (V0) ([1]; inhibitor 0.0199526 μM): 1.04 and 1.062 | Normalised velocity (V0) ([1]; inhibitor 0.0316228 μM): 0.9173 and 1.065 | Normalised velocity (V0) ([1]; inhibitor 0.0501187 μM): 0.915 and 1.002 | Normalised velocity (V0) ([1]; inhibitor 0.0794328 μM): 0.8247 and 0.8903 | Normalised velocity (V0) ([1]; inhibitor 0.125893 μM): 0.6057 and 0.745 | Normalised velocity (V0) ([1]; inhibitor 0.199526 μM): 0.5727 and 0.6444 | Normalised velocity (V0) ([1]; inhibitor 0.316228 μM): 0.4326 and 0.4719 | Normalised velocity (V0) ([1]; inhibitor 0.398107 μM): 0.425 and 0.486 | Normalised velocity (V0) ([1]; inhibitor 0.630957 μM): 0.3369 and 0.3696 | Normalised velocity (V0) ([1]; inhibitor 1 μM): 0.2871 and 0.3028 | Normalised velocity (V0) ([1]; inhibitor 1.58489 μM): 0.2427 and 0.2962 | Normalised velocity (V0) ([1]; inhibitor 2.51189 μM): 0.2711 and 0.2368 | Normalised velocity (V0) ([1]; inhibitor 3.98107 μM): 0.2213 and 0.2236 | Normalised velocity (V0) ([1]; inhibitor 6.30957 μM): 0.121 and 0.1898 | Normalised velocity (V0) ([1]; inhibitor 10 μM): 0.08882 and 0.07343 | Normalised velocity (V0) ([1]; inhibitor 15.8489 μM): 0.08806 and 0.08498 | Normalised velocity (V0) ([1]; inhibitor 25.1189 μM): 0 | Normalised velocity (V0) ([1]; inhibitor 39.8107 μM): 0 | Normalised velocity (V0) ([1]; inhibitor 63.0957 μM): 0 | Normalised velocity (V0) ([1]; inhibitor 100 μM): 0
Compound: O=C(NC1C2CNCC21)c1nn(C(=O)c2c(Cl)cccc2Cl)cc1NC(=O)c1c(Cl)cccc1Cl (stereo not shown) [FX-171-C]
Normalised V0 ([1]; [Inhibitor] 0.013 μM, replicate columns): 0.9661 and 1.259 and 1.028 and 1.106 and 0.9509 and 0.8874 | potency ranking over BRISC orthologs ([1]; human vs mouse and zebrafish BRISC): highest potency toward human BRISC over mouse and zebrafish BRISC | ISG expression (Fig. 5b) [2]: 1.886 and 0.9791 and 0.9889 and 0.9654 and 2.3346 | ISG expression (Fig. 5c) [2]: 1.805 and 0.9044 and 1.045 and 1.083 and 2.1 | ISG expression (Fig. 5e) [2]: 1.992 and 0.8788 and 0.9319 and 1.019 and 2.187 | ISG expression (Fig. 5f) [2]: 1.937 and 0.8462 and 0.8933 and 0.87 and 0.6063 | ISG expression (Fig. 5d) [2]: 2.039 and 1.092 and 1.112 and 1.2514 and 2.244
